# Experimental data: patent US20260227412A1, “USE OF IFN-I ACTIVITY AS A BIOMARKER FOR TLR INHIBITOR TREATMENT” (MERCK PATENT GMBH, priority 2022, published 2026)
# Legend:
# [1] = tested on: patients hospitalized with COVID-19 pneumonia; assay: Exploratory phase II clinical study of enpatoran in patients hospitalized with COVID-19 pneumonia (NCT04448756), time to recovery; assay type: in vivo, human
# Protocol: An exploratory phase II clinical study in patients hospitalized with COVID-19 pneumonia was conducted to inter alia assess whether the TLR inhibitor enpatoran improves time to recovery (NCT04448756).
# Statistical testing was considered exploratory, and results are presented with no adjustment of type I error for multiplicity. Time to recovery was defined as time from Day 1 to first occurrence of WHO 9-point ordinal scale of ≤3 and was estimated via Kaplan-Meier (KM) analysis, presented with two-sided 95% confidence intervals (CI). The effect of each dose level compared with placebo was evaluated using a stratified log-rank test.
# Blood was collected directly in PAXgene RNA tubes from patients at baseline prior to treatment for measurement of gene expression. IFN-I activity was measured by DxTerity Diagnostics (Rancho Dominguez, California, USA), using the IFN-1 test, a commercially available chemical ligation-dependent probe amplification and gene expression test with relative quantitative analysis by capillary electrophoresis. Sample testing and analysis was performed as previously described (Kim et al., J Mol Diagn. 2015 March;17 (2): 118-27). The IFN-1 test measures the expression levels of four IFN response genes (HERC5, IFI27, IFIT1 and RSAD2), i.e. the Dx-4 IFN-I signature, relative to the expression levels of three housekeeping normalizer genes (ACTB, GAPDH and TFRC). Normalized expression values of each respective response gene were calculated per the following function: Normalized ExpressionGene i=Log2(HeightGene i)−Mean (Log2 (Normaliser Gene Height)). The IFN-I signature score was calculated by averaging the normalized expression values of the four response genes. The cut-off between high IFN-I signature and low IFN-I signature scores (−0.5), was set to the mean±2 SDs (95th percentile) of IFN-I signature scores from 281 healthy human donors. This cut-off falls within the trough of the observed bimodal distribution of IFN-I signature scores for cohorts of SLE patients.
# 149 patients received either placebo (n=49), or enpatoran 50 mg (n=54)0r 100 mg (n=46) BID. Mean IFN-I signature scores (50 mg BID-0.84; 100 mg BID-0.74; placebo-0.91) and the proportion of patients with high IFN-I signature scores at baseline (50 mg BID 35%; 100 mg BID 43%; placebo 35%) were reasonably consistent across treatment groups, as reflected by Table 2: […]
# [2] = tested on: TLR7/8 activation in human PBMCs by patient-derived immune complexes; assay: IFN-α production in healthy donor PBMCs stimulated with patient-derived immune complexes (AlphaLISA); assay type: cell-based; conditions: PBMCs pre-treated with 1 μM enpatoran for 30 minutes, immune complex 24 hours
# From the text: Blood sample collection: Blood samples were collected from subjects with lupus nephritis (LN), systemic lupus erythematosus (SLE), dermatomyositis (DM), polymyositis (PM), patients with inclusion body myositis (IBM) and healthy controls (HC). Blood plasma was isolated and frozen. Later, immunoglobulin G (IgG) was purified using protein A resin and the protein concentration determined.
# Immune complex formation and peripheral blood mononuclear cell (PBMC) stimulation: To generate necrotic cell lysates, human embryonic kidney 293 cells were suspended at a concentration of 50 x10^6 cells/mL in phosphate buffered saline (PBS; Gibco, Grand Island, NY). The cells were frozen at −80° C. for 10 minutes followed by thawing at 37° C. Four freeze/thaw cycles were performed. The lysate was centrifuged at 400 g for 5 minutes to separate non-lysed cells and the supernatant was collected as necrotic cell lysate.
# PBMCs were isolated from leukopacks collected from healthy donors (New York Blood Center, New York, NY) in sodium heparin tubes using Ficoll-Paque Plus (Cytiva Life Sciences, Uppsala, Sweeden). The cells were plated in 96-well U-bottom plates (4 x10^5 cells/well) in RPMI 1640 Medium (Gibco, Grand Island, NY) supplemented with 10% fetal bovine serum (FBS; Corning, Woodland, CA). […] The supernatants were collected and cytokine production was measured by AlphaLISA (PerkinElmer, Waltham, MA).
# [3] = subgroup with high IFN-I signature scores at baseline, 50 mg BID
# [4] = subgroup with high IFN-I signature scores at baseline, 100 mg BID
structure (smiles),measurement,setting,value
"N#Cc1ccc(N2C[C@H](N)C[C@H](C(F)(F)F)C2)c2cccnc12 [enpatoran, 5-[(3R,5S)-3-amino-5-(trifluoromethyl)piperidin-1-yl]quinoline-8-carbonitrile]",KM-estimated cumulative recovery rate up to Day 14,[1]; [3],78.6%
same,recovery rate at Day 28,[1]; [3],73.3%
same,KM-estimated cumulative recovery rate up to Day 14,[1]; [4],88.2%
same,recovery rate at Day 28,[1]; [4],88.2%
same,recovery rate at Day 28,"[1]; subgroup with low IFN-I signature scores at baseline, 50 mg BID",100%
same,recovery rate at Day 28,"[1]; subgroup with low IFN-I signature scores at baseline, 100 mg BID",91.3%
same,primary efficacy endpoint of the time to recovery from Day 1 through Day 28,"[1]; unstratified patient populations, enpatoran 50 mg or 100 mg BID vs placebo",not met
same,recovery rate,"[1]; unstratified, Day 1 through Day 28, 50 mg BID",88.9%
same,recovery rate,"[1]; unstratified, Day 1 through Day 28, 100 mg BID",91.3%
same,median time to recovery,"[1]; unstratified, range across groups (placebo, 50 mg BID, 100 mg BID)",3.4 to 3.9 days
same,IFN-α production,[2],completely inhibited
